Test results as given in patent US20230414771A1, “PREPARATION AND USE OF IMMUNOSTIMULATORY CONJUGATED COMPLEXES FOR TARGETED DELIVERY AND ACTIVATION” (YAFEI SHANGHAI BIOLOGY MEDICINE SCIENCE & TECHNOLOGY CO., …, priority 2020, published 2023).
Where a SMILES comes first, the peptide text is derived from it. [ ]: non-standard residue; d: D form. The star is where a group is joined. ξ: configuration not given here. Doxorubicin(3'-N) = COc1cccc2c1C(=O)c1c(O)c3c(c(O)c1C2=O)C[C@@](O)(C(=O)CO)C[C@@H]3O[C@H]1C[C@H](N*)[C@H](O)[C@H](C)O1; X2 = CC(C)(C)c1nc(-c2cccc(NS(=O)(=O)c3c(F)cccc3F)c2F)c(-c2ccnc(N*)n2)s1; Hexanoyl(6-maleimido) = O=C1C=CC(=O)N1CCCCCC(=O)*; Propanoyl(3-maleimido) = O=C1C=CC(=O)N1CCC(=O)*; X1 = O=C1C=CC(=O)N1CCOCCOCCOCCC(=O)*; X3 = O=C1C=CC(=O)N1CCOCCOCCC(=O)*; PEG3 = NCCOCCOCCOCCC(=O)O; PEG2 = NCCOCCOCCC(=O)O; ξL = CC(C)CC(N)C(=O)O

Legend:
[1] = system: Human hepatoma HepG2 cells; experiment: Human liver cancer HepG2 tumors in nude mice; type: in vivo; conditions: for inhibition in vivo at 54 µmol/kg: Mus musculus, HepG2, iv, 672 h, read-out: Tumor inhibition rate (%) Day 28
Method: • 1. Animals: nude mice aged 6-8 weeks, all female. • 2. Preparation of tumor models
Human hepatoma HepG2 cells were purchased from ATCC and identified according to the instructions provided. […] Randomization was performed when the tumor size reached 100 mm^3.
Treatment was then initiated, and the day of initiation of treatment was counted as Day 1. • 3) Treatment process
According to the clinical application of the corresponding compound, the drug was administered intravenously (IV). The compound and the control drug were administered at a dose of 54 umol/kg, and DOX could only be administered at a dose of 18 umol/kg due to toxicity limitations.

HT1080 tumors = experiment: HT1080 tumor model in nude mice, 36 umol/kg; type: in vivo; conditions: for inhibition in vivo at 36 µmol/kg: Mus musculus, HT-1080, iv, 672 h, read-out: Tumor inhibition rate Day 28
Method: • 1. Animals: nude mice aged 6-8 weeks, all female. • 2. Preparation of tumor models • 1) HT1080 cells were purchased from ATCC and characterized according to the instructions provided. […] Randomization was performed when the tumor size reached 100 mm^3. Treatment was then initiated, and the day of initiation of treatment was counted as Day 1. • 3) Treatment process
According to the clinical application of the corresponding compound, the drug was administered intravenously (IV). The compounds indicated in the table were administered at a low dose and at the same dose of 36 umol/kg.

M2 macrophages = experiment: Cytotoxicity screening, inhibition rate of M2 macrophages at 10 uM; type: cell-based, C57BL/6 mice; conditions: 10 uM drug per well, 3 wells, relative to the drug-free group
Method: After the cell count in Example 13, the cell concentration was adjusted with the culture medium, and the cells were seeded in a 96-well culture plate at […] of cell suspension per well, wherein the seeding concentration of CD8+ T cells was 100000 cells/well, and the seeding concentration of M2 macrophages was 20000 cells/well. The 96-well plate was incubated overnight for 24 hour at 37° C. in a carbon dioxide (5%) incubator. After 24 hours, 100 ul of cell culture solutions containing different concentrations of drugs were added to the 96-well culture plate. At the same time, a control well (0.1% DMSO) with no drug added and only the corresponding drug solvent and a zero-adjusted well (Blank) with only medium and no cells added was set. Each set was prepared in triplicate and the plates were incubated for 48 hours at 37° C. in a 5% CO2 incubator. After 48 hours, 20 μl MTT (5 mg/ml) was added to each well and the incubation was continued for 4 hours. The culture medium was then gently aspirated, and 150 μl DMSO was added to each well as solvent for dissolution. After dissolution, the absorbance at 490 nm was measured with a microplate reader.
Cytotoxicity screening experiments for some compounds were performed for M2 macrophage inhibition as in embodiment 14.

CT26 tumor = CT26 tumor immune model, tumor suppression and CD8+ T cell analysis; type: in vivo, BALB/c mice; conditions: for CD8:CD45 (%): CD8-positive among CD45-positive cells in tumor, flow cytometry; for Tumor inhibition rate (%) Day 28 / Tumor volume (mm^3) Day 28: drug 36 umol/kg once a week for three weeks, PD-1 antibody 5 mg/kg
Method: • 1) CT26 cells were purchased from ATCC. […] The corresponding 5×10^6 cells were injected subcutaneously into the back of […] mice. After the size of tumors reached at least 100 mm^3, the mice were randomized into groups. Treatment was then initiated, with the day of treatment initiation being Day 1. • 3) The course of treatment. The drug was administered at an equimolar dose of 36 umol/kg. The control group was given normal saline. The drug was administered once a week for three week. • 4) Tumor CD8+ T cell analysis. Tumor tissue was homogenized, individual cells in the tumor were filtered, dissociated and washed twice with buffer, and then incubated with leukocyte common antigen CD45-PE and CD8-FITC-labeled antibodies for 1 hour at room temperature. The cells were washed twice with phosphate buffered saline containing 1% fetal bovine serum, and then the proportion of T lymphocyte antigen (CD8)-positive cells in leukocyte common antigen (CD45)-positive cells was analyzed by flow cytometry. An increase in the ratio indicates an increase in T lymphocytes and therefore an improvement in the immunity of the animal to the tumor. • 5) The grouping and test results are shown in Table 7.

[2] = Water solubility test (observation and HPLC); type: physicochemical; conditions: thermodynamic from solid
Method: The compounds prepared in accordance with the examples of the disclosure and the reference compounds C1, C2, C3 and C4 were lyophilized (−70° C.).

For `COc1cccc2c1C(=O)c1c(O)c3c(c(O)c1C2=O)C[C@@](O)(C(=O)CO)C[C@@H]3O[C@H]1C[C@H](NC(=O)[C@H](CC(C)C)NC(=O)[C@H](CC(N)=O)NC(=O)[C@H](C)NC(=O)[C@H](C)NC(=O)CCOCCOCCOCCN2C(=O)C=CC2=O)[C@H](O)[C@H](C)O1` [QHL-010-DOX] (X1-AANL-{Doxorubicin(3'-N)}), the “Tumor volume (mm^3) Day 28” value ([1]; 54 umol/kg IV once a week for 4 weeks) was 0 mm^3, the inhibition in vivo at 54 µmol/kg [1] was 100% and the “Tumor volume (mm^3) Day 28” value (HT1080 tumors; 36 umol/kg IV once a week for 3 weeks) was 0 mm^3. For the same molecule, the inhibition in vivo at 36 µmol/kg (HT1080 tumors) was 100% and the “growth inhibition of tumor, outcome in words” value (HT1080 tumors; compared with equimolar dose AANL-DOX) was “the tumor disappeared”.
For `COc1cccc2c1C(=O)c1c(O)c3c(c(O)c1C2=O)C[C@@](O)(C(=O)CO)C[C@@H]3O[C@H]1C[C@H](NC(=O)[C@H](CC(C)C)NC(=O)[C@H](CC(N)=O)NC(=O)[C@H](C)NC(=O)[C@H](C)NC(=O)[C@H](CCC(=O)O)NC(=O)CCOCCOCCN2C(=O)C=CC2=O)[C@H](O)[C@H](C)O1` [QHL-021-DOX] (X3-EAANL-{Doxorubicin(3'-N)}), the “Inhibition rate of M2 macrophages” value (M2 macrophages) was 68.6%.
In the case of `CC(C)CC(NC(=O)[C@@H](CC(N)=O)NC(=O)[C@@H](C)NC(=O)[C@@H](C)NC(=O)CCOCCOCCNC(=O)CCN1C(=O)C=CC1=O)C(=O)Nc1nccc(-c2sc(C(C)(C)C)nc2-c2cccc(NS(=O)(=O)c3c(F)cccc3F)c2F)n1` (some centres unmarked) [QHL-087-dabrafenib] ({Propanoyl(3-maleimido)-PEG2}-[dA][dA][dN][ξL]-X2), the “CD8:CD45 (%)” value (CT26 tumor) was 6.4%, the “Tumor inhibition rate (%) Day 28” value (CT26 tumor) was 64.0% and the “Tumor volume (mm^3) Day 28” value (CT26 tumor) was 678.4 ± 348.7 mm^3. The solubility [2] was greater than 10000 µg/mL.
With `CC(NC(=O)CCOCCOCCOCCNC(=O)CCN1C(=O)C=CC1=O)C(=O)NC(C)C(=O)NC(CC(N)=O)C(=O)Nc1ccc(COC(=O)N2CC3(C2)C(=O)[O][Pt-2]([NH3+])([NH3+])[O]C3=O)cc1` (centres unmarked) [QHL-089-N-CBP] the “Inhibition rate of M2 macrophages” value (M2 macrophages) was 97.4% and the solubility [2] was greater than 10000 µg/mL.
With `CC(C)CC(NC(=O)[C@@H](CC(N)=O)NC(=O)[C@@H](C)NC(=O)[C@@H](C)NC(=O)CCOCCOCCOCCNC(=O)CCN1C(=O)C=CC1=O)C(=O)Nc1nccc(-c2sc(C(C)(C)C)nc2-c2cccc(NS(=O)(=O)c3c(F)cccc3F)c2F)n1` (some centres unmarked) [QHL-090-dabrafenib] ({Propanoyl(3-maleimido)-PEG3}-[dA][dA][dN][ξL]-X2) the “CD8:CD45 (%)” value (CT26 tumor) was 7.4%, the “therapeutic effect combined with PD-1, in words” value (CT26 tumor; combined with PD-1 versus single drug) was “a certain synergistic effect” and the “Tumor inhibition rate (%) Day 28” value (CT26 tumor) was 68.7%. The “Tumor volume (mm^3) Day 28” value (CT26 tumor) was 589.7 ± 247.4 mm^3 and the solubility [2] was greater than 10000 µg/mL.
In the case of `CC(NC(=O)CCOCCOCCOCCOCCNC(=O)CCN1C(=O)C=CC1=O)C(=O)NC(C)C(=O)NC(CC(N)=O)C(=O)Nc1ccc(COC(=O)N2CC3(C2)C(=O)[O][Pt-2]([NH3+])([NH3+])[O]C3=O)cc1` (centres unmarked) [QHL-092-N-CBP], the “Inhibition rate of M2 macrophages” value (M2 macrophages) was 75.8% and the solubility [2] was greater than 10000 µg/mL.
With `CC(NC(=O)CCOCCOCCOCCOCCOCCOCCNC(=O)CCN1C(=O)C=CC1=O)C(=O)NC(C)C(=O)NC(CC(N)=O)C(=O)Nc1ccc(COC(=O)N2CC3(C2)C(=O)[O][Pt-2]([NH3+])([NH3+])[O]C3=O)cc1` (centres unmarked) [QHL-095-N-CBP] the “Inhibition rate of M2 macrophages” value (M2 macrophages) was 68.7% and the solubility [2] was greater than 10000 µg/mL.
Work on `COc1cccc2c1C(=O)c1c(O)c3c(c(O)c1C2=O)C[C@@](O)(C(=O)CO)C[C@@H]3O[C@H]1C[C@H](NC(=O)[C@H](CC(C)C)NC(=O)[C@H](CC(N)=O)NC(=O)[C@H](C)NC(=O)[C@H](C)NC(=O)[C@H](CCC(=O)O)NC(=O)CCCCCN2C(=O)C=CC2=O)[C@H](O)[C@H](C)O1` [QHL-117-DOX] ({Hexanoyl(6-maleimido)}-EAANL-{Doxorubicin(3'-N)}) yielded an inhibition in vivo at 54 µmol/kg [1] of 100% and an inhibition in vivo at 36 µmol/kg (HT1080 tumors) of 100%.
